# In patent US20220184222A1, “BICYCLE TOXIN CONJUGATES AND USES THEREOF” (BicycleTx Limited, priority 2019, published 2022):
# Starred links: 1 amine or outer side, 2 acyl side, 3 side chain; linkers in the order of their positions; H or OH if unused. Non-standard residues stand in square brackets, D forms with d. Residues, ends and D or L forms follow the SMILES beside them. *: point of attachment. Dolaproine = CO[C@@H]([C@@H]1CCCN1)[C@@H](C)C(=O)O; Dil = CC[C@H](C)[C@H](NC)[C@@H](CC(=O)O)OC; PABC = O=C(OCc1ccc(N[*:1])cc1)[*:2]; X1 = O=C(CCCC(=O)*)ON1C(=O)CCC1=O; X2 = C[C@@H](N*)[C@@H](O)c1ccccc1; Cit = NC(=O)NCCC[C@H](N)C(=O)O; NMeV = CN[C@H](C(=O)O)C(C)C
# Columns and labels:
# [1] = test system: pHH3; assay: In vivo PD in PC-3 CDX model: tumor pHH3 IHC, mitotic arrest (Example 4); parameters: species or system Mus Musculus; conditions: single dose
# Method: The objective of the research is to evaluate the in vivo PK/PD of test agents in treatment of PC-3 CDX model in Balb/c nude mice.
# Each mouse was inoculated subcutaneously at the right flank with PC-3 tumor cells (10×10^6) in 0.2 mL of PBS for tumor development. The animals were randomized and dosed when the average tumor volume reached approximately 440 mm^3 for the PK/PD study. The test article administration and time points in each group were shown in the experimental design table.
# Mice were randomly grouped based on tumor volume and dosed as experimental design. Plasma, serum, muscle and tumors were collected at 1 h, 2 h, 8 h, 24 h, 48 h, 72 h and 96 h post dosing.
# 3 tumors of a mouse cohort were embed into 1 FFPE block.
# • 5 μm FFPE tissue section loaded on Ventana XT; • Deparaffinization was selected; • EDTA based CC1 Standard heat antigen retravel was selected; • Option 1 (Protein blocker, Invitrogen Cat #1890588) was selected and incubate for 32 Min; • CC3 antibody (CST Cat #9661) 1:200 dilution was applied and incubated for 60 min at 37° C. • Apply One Drop of [OMap anti-Rb HRP] […]
# [2] = test system: 15 low-passage Champions TumorGraft models of human non-small cell lung cancer; assay: Panel of 15 NSCLC patient derived tumor xenografts (Champions PDX indication screen), overall; format: in vivo, Mus musculus; conditions: weekly 3 mpk
# Method: This study was conducted to evaluate the in vivo antitumor activity of BT5528 as monotherapy in 15 low-passage Champions TumorGraft® models.
# Mice were implanted subcutaneously into the left flank with tumor fragments from one of the various models. After tumors grew to an average of 150-300 mm^3, mice were treated by IV administration Q7Dx4 (n=2) with vehicle or 3 mg/kg of BT5528. Effects on tumor growth were evaluated by measuring percent tumor growth inhibition (% TGI), and the number of complete responders (CR), partial responders (PR), and tumor-free survivors (TFS). Tolerability was assessed by body weight loss, lethality, and clinical signs of adverse treatment-related side effects. Tumor volumes and body weights were measured twice a week. […]
# Stock mice were implanted with tumor cells from Champions TumorGraft® models CTG-0160, CTG-0170, CTG-0178, CTG-0192, CTG-0363, CTG-0808, CTG-0838, CTG-0848, CTG-1212, CTG-1502, CTG-1535, CTG-2011, CTG-2393, CTG-2539 or CTG-2540. […] Tumor growth was monitored twice a week using digital calipers and the tumor volume (TV) was calculated using the formula (0.52×[length×width^2]). […] After the initiation of dosing on Day 0, animals were weighed twice per week using a digital scale and TV was measured twice per week and also on the final day of study. […]
# [3] = test system: Panc163; assay: PDAC PDX Panc163 xenograft efficacy (Example 5); format: in vivo, NSG mice; conditions: 3 mg/kg intravenously weekly, 4-week treatment period
# Method: BT5528 and Vehicle were prepared as described in the examples above, and tested in treatment of Pancreatic Ductal Adenocarcinoma (PDAC) in PDX models. PDX models effectively capture patient responses to oncology therapy in a heterogeneous cohort of patients with solid tumors with 80-100% correlation between the PDX and patient response (Izumchenko et al. 2017)
# Pancreatic ductal adenocarcinoma patient derived xenograft tumors (PDAC PDX; Panc033 and Panc163) were implanted subcutaneously from source tumors into the flank of NSG mice. Tumor bearing animals were randomized to receive intravenously a weekly dosing of vehicle or 3 mg/kg BT5528. Tumor sizes were monitored by caliper measurements.
compound,measurement,setting,value
CC[C@H](C)[C@@H]([C@@H](CC(=O)N1CCC[C@H]1[C@H](OC)[C@@H](C)C(=O)N[C@H](C)[C@@H](O)c1ccccc1)OC)N(C)C(=O)[C@@H](NC(=O)[C@H](C(C)C)N(C)C(=O)OCc1ccc(NC(=O)[C@H](CCCNC(N)=O)NC(=O)[C@@H](NC(=O)CCCC(=O)ON2C(=O)CCC2=O)C(C)C)cc1)C(C)C [BT5528] (X1-V[Cit][PABC][NMeV]V[Dil][Dolaproine]-X2),"mitotic arrest in tumor measurable by pHH3 IHC, time after dose",[1],≤ 24 hours
same,"mitotic arrest of tumor cells, time post-dose",[1],24 to 48 h
same,models with tumor growth inhibition of 50% or more,[2],10 out of 15
same,anti-tumor activity (tumor size by caliper),[3],significant anti-tumor activity from reduced tumor growth rate to decreasing tumor volumes
